Assay results: US5597915A, “Benzodiazepine derivatives, compositions containing them and their use in therapy” (Merck Sharp & Dohme Ltd., priority 1992, dated 1997)

Experiments:
CCK Receptor (Pancreas) = molecular target: T1, CCK Receptor (Pancreas) (Rattus norvegicus, UniProt P30551); experiment: CCK Receptor Binding (Pancreas): inhibition of 125I-CCK-8 binding to rat pancreas membranes; design: species or system rat (male Sprague-Dawley); settings: 50 pM 125I-CCK-8, 25° C., 2 hours, pH 6.5
T1 construct: The whole pancreas was dissected free of fat tissue and was homogenized; from tissue; host or cells: rat whole pancreas homogenate/membranes
T1 sequence (P30551 1-444): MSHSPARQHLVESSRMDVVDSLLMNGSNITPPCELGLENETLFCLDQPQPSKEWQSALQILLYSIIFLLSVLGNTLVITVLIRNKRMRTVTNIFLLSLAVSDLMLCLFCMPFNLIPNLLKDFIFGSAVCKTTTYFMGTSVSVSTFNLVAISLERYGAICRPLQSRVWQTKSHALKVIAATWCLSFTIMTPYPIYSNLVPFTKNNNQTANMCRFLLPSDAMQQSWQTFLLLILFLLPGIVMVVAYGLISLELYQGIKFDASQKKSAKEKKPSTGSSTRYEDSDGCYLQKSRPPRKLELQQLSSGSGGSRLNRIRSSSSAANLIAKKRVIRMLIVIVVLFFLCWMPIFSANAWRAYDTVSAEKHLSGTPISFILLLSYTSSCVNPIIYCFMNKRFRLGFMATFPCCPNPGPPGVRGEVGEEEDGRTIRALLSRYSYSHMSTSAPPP
Method: 1. CCK Receptor Binding (Pancreas)
CCK-8 sulphated was radiolabelled with ^125 I-Bolton Hunter reagent (2000 Ci/mmole). Receptor binding was performed according to Chang and Lotti (Proc. Natl. Acad. Sci. 83, 4923-4926, 1986) with minor modifications.
Male Sprague-Dawley rats (150-200 g) were sacrificed by decapitation. The whole pancreas was dissected free of fat tissue and was homogenized in 25 volumes of ice-cold 10 mM N-2-hydroxyethyl-piperazine-N'-2-ethane sulphonic acid (HEPES) buffer with 0.1% soya bean trypsin inhibitor (pH 7.4 at 25° C.) with a Kinematica Polytron. The homogenates were centrifuged at 47,800 g for 10 min. Pellets were resuspended in 10 volumes of binding assay buffer (20mM (HEPES)), 1 mM ethylene glycol-bis-(β-aminoethylether-N,N'-tetraacetic acid) (EGTA), 5 mM MgCl2, 150 mM NaCl, bacitracin 0.25 mg/ml, soya bean trypsin inhibitor 0.1 mg/ml, and bovine serum albumin 2 mg/ml pH 6.5 at 25° C.) using a Teflon (trademark) homogenizer, 15 strokes at 500 rpm. The homogenate was further diluted in binding assay buffer to give a final concentration of 0.5 mg original wet weight/1 ml buffer. […] The radioactivity on the filters was counted with a LKB gamma counter. […]

CCK Receptor (Brain) = molecular target: T2, CCK Receptor (Brain) (Cavia porcellus, UniProt H0VZC5); experiment: CCK Receptor Binding (Brain): inhibition of 125I-CCK-8 binding to guinea pig cortex membranes; design: species or system guinea pig (male Hartley); settings: 50 pM 125I-CCK-8, 25° C., 2 hours, pH 6.5
T2 construct: the cortex was removed and homogenized in 25 mL ice-cold 0.32 M sucrose; from tissue; host or cells: guinea pig cerebral cortex P2 membranes
T2 sequence (H0VZC5 1-426): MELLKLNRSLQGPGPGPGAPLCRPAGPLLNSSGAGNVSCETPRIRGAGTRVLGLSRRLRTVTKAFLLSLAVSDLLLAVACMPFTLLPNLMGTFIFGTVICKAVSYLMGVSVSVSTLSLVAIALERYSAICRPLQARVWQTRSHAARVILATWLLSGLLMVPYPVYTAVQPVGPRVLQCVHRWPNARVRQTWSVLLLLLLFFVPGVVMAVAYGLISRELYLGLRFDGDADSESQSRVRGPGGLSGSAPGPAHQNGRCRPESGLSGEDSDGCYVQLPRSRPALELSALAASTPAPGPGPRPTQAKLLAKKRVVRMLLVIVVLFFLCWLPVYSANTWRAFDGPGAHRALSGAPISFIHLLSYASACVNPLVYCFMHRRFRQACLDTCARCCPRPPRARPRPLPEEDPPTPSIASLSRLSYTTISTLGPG
Method: 2. CCK Receptor Binding (Brain)
CCK-8 sulphated was radiolabelled and the binding was performed according to the description for the pancreas method with minor modifications.
Male Hartley guinea pigs (300-500 g) were sacrificed by decapitation and the cortex was removed and homogenized in 25 mL ice-cold 0.32 M sucrose. The homogenates were centrifuged at 1000 g for 10 minutes and the resulting supernatant was recentrifuged at 20,000 g for 20 minutes. The P2 pellet was resuspended in binding assay buffer (20 mM HEPES, 5 mM MgCl2, 0.25 mg/ml bacitracin, 1 mM EGTA pH 6.5 at 25° C.), using a Teflon (trademark) homogenizer (5 strokes at 500 rpm) to give a final concentration of 10 mg original wet weight /1.2 ml buffer. For the binding assay, 50 μl of buffer (for total binding) or unlabelled CCK-8 sulphated to give a final concentration of 1 μM (for nonspecific binding) or the compounds of Formula I (for determination of inhibition of ^125 I-CCK-8 binding) and 50 μl of 500 pM ^125 I-CCK-8 (i.e. final concentration of 50 pM) were added to 400 μl of the membrane suspensions in microfuge tubes. All assays were run in duplicate. […] The radioactivity on the filters was counted with a LKB gamma counter. […]

## CN1C(=O)C(NC(=O)Nc2cccc(-c3noc(=O)[nH]3)c2)N=C(C2CCC2)c2ccccc21 (racemic) [Example 2, N-[3(R,S)-5-Cyclobutyl-2,3-dihydro-1-methyl-2-oxo-1H-1,4-benzodiazepin-3-yl]N'-[3-(5-oxo-4H-1,2,4-oxadiazolin-3-yl)phenyl]urea]
CCK Receptor (Pancreas)
  IC50: 110 nM
CCK Receptor (Brain)
  IC50: 5.98 nM

## CN1C(=O)[C@H](NC(=O)Nc2cccc(-c3noc(=O)[nH]3)c2)N=C(C2CCCCC2)c2ccccc21 [Example 1, N-[3(R)-5-Cyclohexyl-2,3-dihydro-1-methyl-2-oxo-1H-1,4-benzodiazepin-3-yl]N'-[3-(5-oxo-4H-1,2,4-oxadiazolin,3-yl)phenyl]urea]
CCK Receptor (Pancreas)
  IC50: 500 nM
CCK Receptor (Brain)
  IC50: 0.123 nM
